Assay results reported in patent publication EP0324574B1, “Immunomodulating bryostatins” (priority 1988, dated 1989).

Tests used:
[1] = test system: HL-60 cell line; conditions: cited from earlier work
[2] = test system: CTL (clone BM10-37); experiment: BLT-Esterase secretion assay in CTL clone; assay type: cell-based, murine
Method: (§1) This assay was performed as described in Takayama, H., et al. 1987. Antigen receptor triggered secretion of a trypsin-type esterase from cytotoxic T-lymphocytes. J. Immunol. 138:566. Briefly, effector cells were resuspended in the incubation media and incubated in triplicate in a 96-well plate (Immulon) at a concentration of 10⁵ cells per 100 µl. Phorbol myristate acetate ("PMA"), bryostatin 1 and bryostatin 2 were added at a final concentration of 10 ng/ml, the Ca⁺⁺ ionophore A23187 (free acid, Sigma C7522) was added at a final concentration of 0.5 µ g/ml. Total volume per well was adjusted to 200 µl. After 4 hours of incubation (37°C, 5% CO₂) the plates were spun (1 min., 200 xG) and 50 µl of the supernatant was harvested. Total BLT-E content was determined by solubilizing 10⁵ effector cells with 0.1% Triton X-100 in PBS.
Using a newly developed BLT-esterase secretion assay (See: Takayama, H., et al, supra). the ability of bryostatins 1 and 2 to activate cytolytic T-cells and to trigger the exocytosis of granules from CTL was tested. […] The combination of bryostatin and Ca⁺⁺-ionophore, however, greatly enhances the activation of CTL and induces significant secretion of granule located enzyme. […] However, when equimolar concentrations of PMA and bryostatin are used, the amount of secreted BLT-Esterase was similar in both combinations.
10⁵ CTL (clone BM10-37) was incubated in a 96-well plate and stimulated by the addition of a PMA (10ng/ml) and A23187 (0.5 µg/ml). Specific BLT-E secretion was measured as described above.

[3] = test system: in vivo primed spleen cells; experiment: generation of cytotoxicity in in vivo primed spleen cells (3-day culture, 51Cr-release assay); assay type: cell-based, B10 mice; conditions: for development of CTL: 0.78nM present during incubation with 2 U/ml of rIL-2; for Index of Cell Recovery after incubation / Lytic Units Per 10⁷ cells: Media + rIL-2 (2U/ml) + 0.5 ng/ml PK-C activator, 3 days of incubation; for Lytic Units Per 10⁷ cells: P815 target cells
Method: (§2) Effector cells and ⁵¹Cr-labeled target cells were mixed and incubated in triplicate in a 96-well plate at different E/T ratios as described in Grabstein, K. 1980. Cell-mediated cytolytic responses. In Selected Methods in Cellular Immunology, B. B. Mishel and S. M. Shiigi, eds. (San Francisco, Freeman), pp. 124. The target cell number was 10⁴ cells per well when ⁵¹Cr-release assay was performed with the cytolytic T-cell clones. 5x10³ target cells per well were used when spleen cells and lymph node T-cells were studied as effectors. PMA, bryostatin 1 and bryostatin 2 were added at a final concentration ranging from 0.5 ng/ml to 100 ng/ml. Lectin- dependent cytotoxicity assay was performed by adding 10 µg/ml Con A to the mixture of CTL and ⁵¹Cr-labeled target cells. After incubation, the 96-well plate was centrifuged (1 min, 800 rpm, 4|C), all supernatants were harvested, radioactivity in the samples was counted and the mean values for each triplicate were determined. Percent of specific ⁵¹Cr release was calculated as 100X (a-b)/(t-b), where a is ⁵¹Cr release in the presence of CTL, b is spontaneous release from labeled target cells in the absence of CTL and t is the total number of cpm in the target cells.
B10 mice were immunized in vivo with 5-7.5x10⁶ irradiated P815 (H-2^d) cells. After 2-3 weeks animals were sacrificed and spleen cells were harvested. Red blood cells were lysed with hypotonic salt solution. Cells were incubated with 100 µl of 1/10 diluted M5/114.15.2 mAb containing ascites per 50x10⁶ cells. Following 30 min at room temperature, cells were washed and 100 µl of MAR 18.5 containing cell supernatant and 100 µl of rabbit complement per 50x10⁶ cells were added. Incubation at 37°C was allowed to proceed for 45 min., dead cells were removed by Hypaque-Ficoll centrifugation, washed and then incubated for three days in RPMI media/10% FCS with or without addition of IL-2, PMA or bryostatin as specified in legends of the drawing. Cytotoxicity against Ag-bearing target cells was measured in a ⁵¹Cr-release assay using P815 mastocytoma cells as targets.
In vivo primed B10 spleen cells were prepared as described above. After a 3-day culture either in the presence of either rIL-2 or rIL-2 plus protein kinase C activator, cytotoxicity was measured in a ⁵¹Cr release assay at the E/T ratios shown in FIG. 2 using 10⁴ P815 target cells/well. Results of cytotoxicity assay are shown for (A) cells cultured with rIL-2 alone (0 U/ml, 2 U/ml, 10 U/ml, 20 U/ml); (B) cells cultured with rIL-2 plus 0.5 ng/ml bryostatin 1; (C) cells cultured with rIL-2 plus 0.5 ng/ml bryostatin 2; and (D) cells cultured with rIL-2 plus 0.5 ng/ml PMA. […]

[4] = test system: small resting T-cells; experiment: BLT-E content of small resting T-cells after 3-day culture; assay type: cell-based, BALB/c mice; conditions: for expression of BLT-E activity in resting T-cells: added alone; for amount of BLT-E on a per cell basis: in combination with IL-4
Method: as §1
(§3) Mesenteric lymph nodes were harvested from virus-free BALB/c mice 8-12 weeks of age. After two nylon wool column passages, Ia positive cells were subsequently lysed with the anti-Ia monoclonal antibody M5/114 plus Low-Tox-M rabbit complement as described above. Small dense resting T-cells were then separated by a modified discontinuous Percoll gradient procedure (See: Defranco, et al. 1982. Frequency of B-lymphocytes responsive to antiimmunoglobulin. J. Exp. Med. 155:1523.). Purified T-cells which were harvested in the 66-70% density band were considered to be small resting T-cells.
(§4) Small resting T-cells were purified from Balb/c mesenteric lymph nodes as described above. Purified cells were cultured for 3 days at a cell concentration of 10⁶ cells/ml either in media alone or in media plus different additions (rIL-2,100 U/ml; BSF-1, 2000 U/ml; bryostatin 1 or 2, 0.5 ng/ml). Cytotoxicity was measured in a 6 hour lectin mediated (Con A, 10 µg/ml) ⁵¹Cr-release assay. Results are shown for an E/T ratio of 100/l. For the determination of BLT-E content, 10⁶ cells of each of tested culture conditions were resuspended in 100 µl of media and solubilized with 1% Triton® X-100. Fifty l of cell suspension was used for measurement of BLT-esterase content as described above. Tested reagents when added alone to the cell cultures neither increased cellular BLT-esterase content nor induced cytotoxicity as shown in FIG. 7.

[5] = test system: tumor promoters; experiment: antagonism of tumor promoters
[6] = test system: small resting T-cells; experiment: development of cytotoxicity in small resting T-cells (lectin mediated 51Cr-release assay); assay type: cell-based, BALB/c mice
Method: as §2, §3, §4

[7] = test system: P388 in vitro cell line; conditions: against the P388 in vitro cell line; cited from earlier work
[8] = test system: cytotoxic T-cell clone 2C; experiment: Ag-nonspecific cytotoxicity of CTL clone 2C against EL-4 target cells (51Cr-release); assay type: cell-based, murine; conditions: for lysis of EL-4 cells by CTL clone 2C: added to cell mixture, different E/T ratios
Method: as §2
No ⁵¹Cr-release was observed when ⁵¹Cr-labeled EL-4 cells ([…]) were mixed with the cytotoxic T-cell clone 2C (anti-H-2L^d) at different E/T ratios.
CTL 2C clone were incubated 4 hours with ⁵¹Cr-labeled syngeneic EL4 target cells at different E/T ratios in the presence of different concentrations of PMA or bryostatin 2.

[9] = test system: CTL OE4 cells; experiment: Ag-specific cytotoxicity of CTL OE4 against P815 cells (51Cr-release); assay type: cell-based, murine; conditions: 10 ng/ml, P815 cells with CTL OE4 at various E/T ratios
Method: Effector cells and ⁵¹Cr-labeled target cells were mixed and incubated in triplicate in a 96-well plate at different E/T ratios as described in Grabstein, K. 1980. Cell-mediated cytolytic responses. In Selected Methods in Cellular Immunology, B. B. Mishel and S. M. Shiigi, eds. (San Francisco, Freeman), pp. 124. The target cell number was 10⁴ cells per well when ⁵¹Cr-release assay was performed with the cytolytic T-cell clones. 5x10³ target cells per well were used when spleen cells and lymph node T-cells were studied as effectors. PMA, bryostatin 1 and bryostatin 2 were added at a final concentration ranging from 0.5 ng/ml to 100 ng/ml. Lectin- dependent cytotoxicity assay was performed by adding 10 µg/ml Con A to the mixture of CTL and ⁵¹Cr-labeled target cells. After incubation, the 96-well plate was centrifuged (1 min, 800 rpm, 4|C), all supernatants were harvested, radioactivity in the samples was counted and the mean values for each triplicate were determined. Percent of specific ⁵¹Cr release was calculated as 100X (a-b)/(t-b), where a is ⁵¹Cr release in the presence of CTL, b is spontaneous release from labeled target cells in the absence of CTL and t is the total number of cpm in the target cells. […]
OE4 CXTL cells were incubated with 10⁴ Cr labeled P815-cells at different E/T ratios and a ⁵¹Cr-release was measured after 4 hours incubation. […]

[10] = test system: murine P388 lymphocyte leukemia (PS) system; conditions: 10-70 µg/kg injection dose levels; cited from earlier work
[11] = test system: M531 murine ovary sarcoma system; parameters: dose or concentration left out as unconfirmed; conditions: cited from earlier work
[12] = 10 ng/ml in combination with Ca⁺⁺ ionophore A23187 0.5 µg/ml
[13] = bryostatin and BSF-1 added together

Molecule: CCCCCCCCCCCCCC(=O)O[C@@H]1[C@@H](C)[C@@]2(O)[C@@H](C=C(CO)C[C@]3(O)C(=O)C(C)=C[C@@H]23)[C@@H]2C(C)(C)[C@]12OC(C)=O [PMA, 4 β-phorbol-12-myristate 13-acetate, reference compound]
- induction of differentiation of the HL-60 cell line [1]: can be induced
- BLT-E secretion [2, 12]: greatly enhanced
- BLT-E secretion ([2]; added alone, 10 ng/ml): slight BLT-Esterase secretion
- development of CTL [3]: equal in magnitude to that induced by 20 U/ml of IL-2
- Index of Cell Recovery after incubation [3]: 1.3
- Lytic Units Per 10⁷ cells [3]: 71 Lytic Units Per 10⁷ cells
- degree of cytotoxicity obtained with high concentrations of rIL-2 [3]: enhanced

Molecule: CCC/C=C/C=C/C(=O)O[C@H]1/C(=C/C(=O)OC)C[C@H]2C[C@H]([C@@H](C)O)OC(=O)C[C@H](O)C[C@@H]3C[C@H](OC(C)=O)C(C)(C)[C@](O)(C[C@@H]4C/C(=C/C(=O)OC)C[C@H](/C=C/C(C)(C)[C@]1(O)O2)O4)O3 [bryostatin 1]
- expression of BLT-E activity in resting T-cells [4]: Neither growth factors (IL-2, IL-4) nor bryostatin 1 and 2 alone induced expression
- amount of BLT-E on a per cell basis [4]: dramatically increased
- antagonism of tumor promoters [5]: antagonists of tumor promoters
- induction of cytotoxicity in small resting T-cells compared to PMA [6]: less effective than PMA
- CTL development in resting T-cells ([6]; added alone): failed to induce CTL development
- CTL development in resting T-cells [6, 13]: synergized
- ED₅₀ [7]: 0.89 µg/mL
- BLT-E secretion [2, 12]: slightly lower than that of PMA/Ca²⁺-ionophore
- BLT-E secretion ([2]; added alone, 10 ng/ml): only a slight increase
- lysis of EL-4 cells by CTL clone 2C [8]: caused the lysis of EL-4 cells in a dose dependent manner
- Ag-specific ⁵¹Cr-release [9]: slightly but consistently higher inhibition
- life extension [10]: 52-96%
- life extension [11]: 31-68%
- Index of Cell Recovery after incubation [3]: 0.9
- Lytic Units Per 10⁷ cells [3]: 40 Lytic Units Per 10⁷ cells
- degree of cytotoxicity obtained with high concentrations of rIL-2 [3]: enhanced

Molecule: bryostatin 2
- expression of BLT-E activity in resting T-cells [4]: Neither growth factors (IL-2, IL-4) nor bryostatin 1 and 2 alone induced expression
- amount of BLT-E on a per cell basis [4]: dramatically increased
- antagonism of tumor promoters [5]: antagonists of tumor promoters
- induction of cytotoxicity in small resting T-cells compared to PMA [6]: consistently induced similar amounts of cytotoxicity
- CTL development in resting T-cells ([6]; added alone): failed to induce CTL development
- CTL development in resting T-cells [6, 13]: synergized
- BLT-E secretion [2, 12]: always less effective
- BLT-E secretion ([2]; added alone, 10 ng/ml): only a slight increase
- level of ⁵¹Cr-release ([8]; 10 ng/ml, compared to same concentration of PMA or bryostatin 1, all E/T ratios (data not shown)): consistently lower
- lysis of EL-4 cells by CTL clone 2C [8]: caused the lysis of EL-4 cells in a dose dependent manner
- concentration causing maximal activity (lysis of EL-4 cells) ([8]; plateau, 10-fold higher concentration gave no higher cytotoxicity): 10 ng/mL
- Ag-specific ⁵¹Cr-release [9]: decreased
- development of CTL [3]: equal in magnitude to that induced by 20 U/ml of IL-2
- Index of Cell Recovery after incubation [3]: 1.0
- Lytic Units Per 10⁷ cells [3]: 70 Lytic Units Per 10⁷ cells
- degree of cytotoxicity obtained with high concentrations of rIL-2 [3]: enhanced
